“And” between values parts separate entries of the source, which are not always exact repeats. Equal values may be shown once. Read-outs that look alike come from different tables or passages of the source.
Key:
CHO-K1 cells = assay: CHO-K1 viability (ATPlite); type: cell-based
Protocol: The viability of NHBE and CHO-K1 cells was quantified using ATP as an indirect read out of the potential cytotoxicity of the compounds. […] Plates were shaken and covered with aluminium foil for 25 min. Luminescence was measured in an Envision reader (Perkin Elmer). Evaluation of viability in CHO-K1 cells was used as an internal compound cytotoxicity standard across cellular assays. […] The plates were incubated for 24 h at 37°C in 5% CO2. After the incubation period, the culture medium was removed and washed with 100 μl of DPBS. Test compounds were dissolved and serially diluted in 100% DMSO. A final 1/100 dilution of each concentration was performed using F12 culture medium with 0.5% FBS. A volume of 100 μl culture medium containing the compounds or 1% DMSO (for control wells) was added to the wells containing the cells and the plate was incubated again 24h. After 24h of compound exposure, cells were washed with DPBS. Then, 100 μl of PBS were added, followed by the addition of 100 μl of ATPlite™ reagent. The plate was shaken for 25 minutes using a microtiter plate shaker. Luminescence was measured using a Luminoskan Ascent luminometer (Thermo Fisher Scientific).
For CHO-K1 viability assays, a standard curve of cells was included in the plate. Luminescence values versus cell number were plotted and the data adjusted to a linear equation. Luminescence values of the samples were interpolated to obtain number of cells. IC50 values were obtained by non-linear regression using Activity Base software (IDBS) and a four-parameter log equation.

LAD2 cells degranulation = assay: Syk dependent LAD2 cells degranulation; type: cell-based, human
Protocol: Normal human bronchial epithelial cells (NHBE) (Lonza CC-2540,) corresponding to 2 different lots derived from 2 human healthy donors, henceforth referred to as donors #1 and #2, were purchased from Lonza, who provided the cells after obtaining permission for use in research applications by informed consent. Cells were cultured in 5% CO2 at 37°C according to the manufacturer´s instructions using Lonza´s Bronchial Epithelial Basal Medium (BEBM) (CC-3171) supplemented with Lonza´s Bronchial Epithelial Cell Growth Medium bullet kit (BEGM) (CC-4175), and grown in collagen coated T-75 and T-175 tissue culture flasks as required (Becton Dickinson 356485 and 356487). Subculturing after trypsinization and amplification was performed using Lonza´s reagent pack subculture reagents (CC-5034) following the manufacturer´s instructions. CHO-K1 and THP-1 cells were purchased from the ATCC through LGC standards (ATCC CCL-61 and TIB-202 respectively). The LAD2 cell line is a human mast cell line established at the National Institutes of Health (Bethesda, Maryland, U.S.).
Quantification of enzymatic p38 activity and p38-dependent TNF production in THP-1 cells was performed as previously described. Enzymatic Syk kinase activity assays and Syk dependent LAD2 cells degranulation assays were performed as previously described. PI3Kδ dependent pAkt phosphorylation in macrophage colony-stimulating factor (M-CSF) stimulated THP-1 cells was measured as previously described.

[1] = tested on: TSLP production in NHBE cells; assay: TSLP HTRF assay (TSLP production in poly I:C / IL-4 stimulated NHBE cells); type: cell-based, human
Protocol: For dose response curves determinations, stocks of test compounds at a concentration of 1.33x10^-3 M in DMSO were sequentially diluted at 1:4 dilution steps before further 1/50 dilution in BEBM medium containing 1x ITS and 0.1% BSA. For the highest 4 μM concentration test compounds were resuspended in DMSO at a concentration of 2.5x10^-3 M and diluted 1/25 in BEBM medium containing 1x ITS and 0.1% BSA before adding 1 μl to the wells containing the cells.
All subsequent steps were automated using a Sciclone® G3 workstation (Perkin Elmer) with a Twister™ II robot (Perkin Elmer). […] 1 μl of test compound solution prepared at 25x concentration was added to the wells containing NHBE cells. The plates were then incubated during 90 minutes at 37°C, 5% CO2, 90% humidity before adding poly I:C (Invivogen HMW Tirl-pic-5) and human IL-4 (Peprotech 200–04) stimulus in 4 μl of BEBM medium containing 1x ITS, 0.1% BSA and 0.1% DMSO using a Multidrop™. […] Cells were then incubated for 24h in the presence of test compounds and stimulus at 37°C, 5% CO2 and 90% humidity conditions. After the 24h incubation period the plates were transferred to a CyBi®-Well platform (CyBio AG) to collect 10 μl of the supernatants which were transferred to a new plate. TSLP levels in the supernatant were determined using a homogeneous Time-Resolved Fluorescence (HTRF) assay custom developed by Cisbio. The assay was based in the use of a donor dye (europium cryptate) coupled to a monoclonal anti-TSLP antibody and an acceptor dye (d2) coupled to a second polyclonal anti-TSLP antibody. […] 10 μl of the resulting solution was then used to determine TSLP levels as described above.
The standard curve was built with eight points prepared in ITS/BSA in BEBM medium without supplements, starting at 700 pg/ml and diluted 1:2, with medium alone being zero TSLP. Fitting model corresponded to equation 100 of Excel fit software. Data from the primary phenotypic screen was visualized using Vortex (Dotmatics). […] For compound selection the maximum inhibition of the two individual duplicate values was taken into account. Dose response confirmation was performed at single point in the 2 donors tested. 9 point curves were run starting at 4 μM concentration by doing serial 1:4 dilutions in cells derived from both donors.

Syk = Syk (Homo sapiens, UniProt P43405); assay: Enzymatic Syk kinase activity assay; type: biochemical
[2] = Cricetulus griseus, CHO-K1, geometric mean, read-out: Inhibition of CHO viability (IC50, μM) (95% CI)
[3] = individual values, read-out: Inhibition of CHO viability (IC50 mM)
[4] = Homo sapiens, LAD2, geometric mean, read-out: Activity in reference cell based assay (IC50, μM) (95% CI) LAD2 cells degranulation
[5] = Homo sapiens, LAD2, individual values, read-out: Cellular activity (IC50, mM) LAD2 cells degranulation
[6] = individual values, read-out: Cellular activity (IC50, mM) LAD2 cells degranulation
[7] = Homo sapiens, NHBE, 24 h, NHBE cells donor #1, poly I:C / IL-4, 24h, geometric mean, read-out: Inhibition of TSLP protein production (IC50, μM) (95% CI)
[8] = individual values, donor #1, read-out: Inhibition of TSLP production in NHBE (IC50)
[9] = individual values, read-out: Biochemical activity (IC50, mM) (Syk)
[10] = geometric mean, read-out: Activity in reference biochemical assay (IC50, μM) (95% CI) Syk

Row | SMILES | IC50 (CHO-K1 cells; [2]) | IC50 (CHO-K1 cells; [3]) | IC50 (LAD2 cells degranulation; [4]) | IC50 (LAD2 cells degranulation; [5]) | IC50 (LAD2 cells degranulation; [6]) | IC50 [1, 7] | IC50 [1, 8] | IC50 (Syk; [9]) | Inhibition of CHO viability % Inhibition ± SD at 3.75 μM (CHO-K1 cells) | Inhibition of CHO viability % at 3.75 micromolar (CHO-K1 cells; individual values) | IC50 (Syk; [10]) | IC50 (CHO-K1 cells; Cricetulus griseus, CHO-K1, individual values, read-out: Inhibition of CHO viability (IC50 mM)) | Inhibition of CHO viability % Inhibition ± SD at 3.12 μM (CHO-K1 cells; 3.12 μM) | Inhibition of CHO viability % at 3.12 micromolar (CHO-K1 cells; individual values)
1 | CCn1cc(-c2cccc(-c3cnc(N)c(C(=O)NC4C5CC6CC4CC(O)(C6)C5)n3)c2)cn1 (centres unmarked) [compound 9] | 7 µM | 8.21 µM and 7.68 µM and 4.44 µM and 9.37 µM and 6.42 µM | 0.182 µM | 0.183 µM | 0.181 µM | 0.302 µM | 0.584 µM and 0.2 µM and 0.237 µM | 24 nM and 22 nM |  |  |  |  |  | 
2 | COc1cc(-c2cnn(C)c2)cc(-c2cnc(N)c(C(=O)N[C@@H]3[C@@H]4C[C@@H]5C[C@H]3C[C@@](O)(C5)C4)n2)c1 [compound 10] |  |  | 0.118 µM | 0.124 µM | 0.113 µM | 0.277 µM | 0.584 µM and 0.198 µM and 0.184 µM | 33.8 nM and 33.1 nM | 35.3 % ± 5.5 | 42.5% and 36.2% and 31.8% and 30% | 33 nM |  |  | 
3 | Nc1ncc(-c2cccc(-c3cccnc3)c2)nc1C(=O)NC1C2CC3CC1CC(O)(C3)C2 (centres unmarked) [compound 11] | 7.85 µM | 8.4 µM and 7.19 µM and 7.56 µM | 0.26 µM | 0.313 µM | 0.217 µM | 1.14 µM | 1.45 µM and 1.79 µM and 0.56 µM | 62 nM and 71 nM |  |  | 66 nM | 8.33 µM |  | 
4 | Cn1cc(-c2cccc(-c3cnc(N)c(C(=O)NC4C5CC6CC4CC(O)(C6)C5)n3)c2)cn1 (centres unmarked) [compound 12] |  |  | 0.118 µM | 0.107 µM | 0.131 µM | 0.253 µM | 0.376 µM and 0.251 µM and 0.172 µM | 25 nM and 21 nM | 19 % ± 1 | 20.7% and 17.8% and 20.2% and 20.8% | 22 nM |  |  | 
5 | Nc1ncc(-c2ccc3[nH]ncc3c2)nc1C(=O)NC1C2CC3CC1CC(O)(C3)C2 (centres unmarked) [compound 13] |  |  |  |  |  | 0.19 µM | 0.365 µM and 0.164 µM and 0.116 µM | 397 nM and 280 nM |  |  | 334 nM |  | 36 % ± 3 | 39.6% and 37.7% and 35.3% and 31.4%
6 | Nc1ncc(-c2ccc3cn[nH]c3c2)nc1C(=O)NC1C2CC3CC1CC(O)(C3)C2 (centres unmarked) [compound 14] |  |  | 0.403 µM | 0.409 µM | 0.398 µM | 0.359 µM | 0.237 µM and 0.804 µM and 0.244 µM | 209 nM and 159 nM | 42 % ± 10 | 51.55% and 51.37% and 30.13% and 37.95% |  |  |  | 
7 | COc1ccc(N(C)c2nc(C)nc3ccccc23)cc1 [compound 16] | 28.8 µM |  |  |  |  | 0.007 µM |  |  |  |  |  |  |  | 1.13% and 6.28% and -14.28% and -12.18%
